Results reported in US20250176599A1, “FLAVOR COMPOSITION AND FOOD AND BEVERAGE” (TAKASAGO INTERNATIONAL CORPORATION, priority 2021, published 2025).

How the values were obtained:
[1] = Sensory evaluation of aqueous solution VI containing 1,5-octadien-3-ol 10 ppb: off-flavor intensity and masking component intensity; details: aqueous solution VI, average panel score
How it was run: (§1)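 Relative off-flavor ratings (0–4) used the unmasked degradant solution as 4 and pure ion-exchanged water as 0. Intensity of the added nootkatone was scored absolutely, 0–4, by eight experienced panelists.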

[2] = Sensory evaluation of degradation component-added soymilk I ((E)-2-nonenal 5 ppb); details: average panel score
Description: (§2) To commercially available soymilk (“Delicious Unadjusted Soymilk” manufactured by Kikkoman Corporation), each degradation component was added to prepare degradation component-added soymilks at the concentrations listed in Table 23. To these degradation component-added soymilks, 1,4-dioxacycloheptadecan-5,17-dione was added at the concentrations listed in Table 23 to confirm the intensity of the off-flavor (masking effect) and the intensity of the masking components (impact on the flavor of the soymilk itself) for each sample.
(§3) Eight experienced panelists were selected to conduct a sensory evaluation similar to that of Example 1. […]

[3] = Sensory evaluation of aqueous solution V containing 1-octen-3-ol 10 ppb: off-flavor intensity and masking component intensity; details: average panel score
How it was run: as §1

[4] = Overall conclusion of the sensory evaluation across aqueous solutions I to VI
How it was run: as §1

[5] = Overall conclusion of the sensory evaluation across soymilks I and II
Description: as §2
Eight experienced panelists were selected to conduct a sensory evaluation similar to that of Example 1.
The same method as in Example 20 was used to confirm the intensity of the off-flavor (masking effect) derived from unsaturated fatty acids by α-methyl ionone and the intensity of the masking components (impact on the flavor of the soymilk itself).
The same method as in Example 20 was used to confirm the intensity of the off-flavor (masking effect) derived from unsaturated fatty acids by menthyl 3-hydroxybutyrate and the intensity of the masking components (impact on the flavor of the soymilk itself).

[6] = Sensory evaluation of aqueous solution IV containing 1,5-octadien-3-one 100 ppt: off-flavor intensity and masking component intensity; details: aqueous solution IV, average panel score
How it was run: as §1

[7] = Sensory evaluation of aqueous solution II containing (E)-2-octenal 10 ppb: off-flavor intensity and masking component intensity; details: average panel score
How it was run: as §1

[8] = Sensory evaluation of aqueous solution III containing 1-octen-3-one 1 ppb: off-flavor intensity and masking component intensity; details: average panel score
How it was run: as §1

[9] = Sensory evaluation of aqueous solution I containing (E)-2-nonenal 1 ppb: off-flavor intensity and masking component intensity; details: average panel score
How it was run: as §1

[10] = Sensory evaluation of degradation component-added soymilk II (1-octen-3-ol 500 ppb); details: average panel score
Description: as §2, §3

For `CC(O)CC(=O)OC1CC(C)CCC1C(C)C` (stereo not drawn) [menthyl 3-hydroxybutyrate], the “Masking Component Intensity” value ([1]; 1 ppb added) was 0.3, the “Off-Flavor Intensity” value ([1]; 1 ppb added) was 2.9 and the “Masking Component Intensity” value ([1]; 1 ppm added) was 1.4. For the same compound, the “Off-Flavor Intensity” value ([1]; 1 ppm added) was 2.1, the “Masking Component Intensity” value ([1]; 5 ppm added) was 1.8 and the “Off-Flavor Intensity” value ([1]; 5 ppm added) was 1.8. For the same compound, the “Masking Component Intensity” value ([1]; 10 ppb added) was 0.6, the “Off-Flavor Intensity” value ([1]; 10 ppb added) was 2.9 and the “Masking Component Intensity” value ([1]; 10 ppm added) was 2.5. The “Off-Flavor Intensity” value ([1]; 10 ppm added) was 1.6, the “Masking Component Intensity” value ([1]; 50 ppm added) was 3.6 and the “Off-Flavor Intensity” value ([1]; 50 ppm added) was 1.3. For the same compound, the “Masking Component Intensity” value ([1]; 100 ppb added) was 0.9, the “Off-Flavor Intensity” value ([1]; 100 ppb added) was 2.5 and the “Masking Component Intensity” value ([1]; 100 ppt added) was 0.1. For the same compound, the “Off-Flavor Intensity” value ([1]; 100 ppt added) was 3.0, the “Masking Component Intensity” value ([2]; 1 ppm added) was 0.4 and the “Off-Flavor Intensity” value ([2]; 1 ppm added) was 2.4. The “Masking Component Intensity” value ([2]; 10 ppm added) was 1.1, the “Off-Flavor Intensity” value ([2]; 10 ppm added) was 1.9 and the “Masking Component Intensity” value ([2]; 50 ppm added) was 2.3. The “Off-Flavor Intensity” value ([2]; 50 ppm added) was 1.5, the “Masking Component Intensity” value ([2]; 100 ppb added) was 0.1 and the “Off-Flavor Intensity” value ([2]; 100 ppb added) was 2.8. The “Masking Component Intensity” value ([2]; 100 ppm added) was 3.1, the “Off-Flavor Intensity” value ([2]; 100 ppm added) was 1.3 and the “Masking Component Intensity” value ([3]; 1 ppb added) was 0.4. For the same compound, the “Off-Flavor Intensity” value ([3]; 1 ppb added) was 3.3, the “Masking Component Intensity” value ([3]; 1 ppm added) was 1.0 and the “Off-Flavor Intensity” value ([3]; 1 ppm added) was 2.5. For the same compound, the “Masking Component Intensity” value ([3]; 5 ppm added) was 1.6, the “Off-Flavor Intensity” value ([3]; 5 ppm added) was 2.4 and the “Masking Component Intensity” value ([3]; 10 ppb added) was 0.8. For the same compound, the “Off-Flavor Intensity” value ([3]; 10 ppb added) was 2.9, the “Masking Component Intensity” value ([3]; 10 ppm added) was 2.4 and the “Off-Flavor Intensity” value ([3]; 10 ppm added) was 2.0. The “Masking Component Intensity” value ([3]; 50 ppm added) was 3.5, the “Off-Flavor Intensity” value ([3]; 50 ppm added) was 1.5 and the “Masking Component Intensity” value ([3]; 100 ppb added) was 1.0. For the same compound, the “Off-Flavor Intensity” value ([3]; 100 ppb added) was 2.8, the “Masking Component Intensity” value ([3]; 100 ppt added) was 0.3 and the “Off-Flavor Intensity” value ([3]; 100 ppt added) was 3.5. For the same compound, the “concentration that masks the off-flavor and does not affect the flavor of the food and/or beverage itself, lower limit” value [4] was at least 10 ppt, the “concentration that masks the off-flavor and does not affect the flavor of the food and/or beverage itself, upper limit” value [4] was at most 10 ppm and the “concentration that masks the off-flavor and does not affect the flavor of the soymilk itself, lower limit” value [5] was at least 100 ppb. The “concentration that masks the off-flavor and does not affect the flavor of the soymilk itself, upper limit” value [5] was at most 100 ppm, the “Masking Component Intensity” value ([6]; 1 ppb added) was 0.1 and the “Off-Flavor Intensity” value ([6]; 1 ppb added) was 3.8. The “Masking Component Intensity” value ([6]; 1 ppm added) was 1.1, the “Off-Flavor Intensity” value ([6]; 1 ppm added) was 3.0 and the “Masking Component Intensity” value ([6]; 5 ppm added) was 1.8. The “Off-Flavor Intensity” value ([6]; 5 ppm added) was 2.5, the “Masking Component Intensity” value ([6]; 10 ppb added) was 0.6 and the “Off-Flavor Intensity” value ([6]; 10 ppb added) was 3.4. For the same compound, the “Masking Component Intensity” value ([6]; 10 ppm added) was 2.6, the “Off-Flavor Intensity” value ([6]; 10 ppm added) was 2.5 and the “Masking Component Intensity” value ([6]; 50 ppm added) was 3.1. The “Off-Flavor Intensity” value ([6]; 50 ppm added) was 2.0, the “Masking Component Intensity” value ([6]; 100 ppb added) was 0.8 and the “Off-Flavor Intensity” value ([6]; 100 ppb added) was 3.1. The “Masking Component Intensity” value ([6]; 100 ppt added) was 0.1, the “Off-Flavor Intensity” value ([6]; 100 ppt added) was 3.8 and the “Masking Component Intensity” value ([7]; 1 ppb added) was 0.6. For the same compound, the “Off-Flavor Intensity” value ([7]; 1 ppb added) was 3.0, the “Masking Component Intensity” value ([7]; 1 ppm added) was 1.9 and the “Off-Flavor Intensity” value ([7]; 1 ppm added) was 2.0. For the same compound, the “Masking Component Intensity” value ([7]; 10 ppb added) was 0.9, the “Off-Flavor Intensity” value ([7]; 10 ppb added) was 2.8 and the “Masking Component Intensity” value ([7]; 10 ppm added) was 2.1. For the same compound, the “Off-Flavor Intensity” value ([7]; 10 ppm added) was 1.9, the “Masking Component Intensity” value ([7]; 10 ppt added) was 0.4 and the “Off-Flavor Intensity” value ([7]; 10 ppt added) was 3.4. For the same compound, the “Masking Component Intensity” value ([7]; 50 ppm added) was 3.5, the “Off-Flavor Intensity” value ([7]; 50 ppm added) was 1.1 and the “Masking Component Intensity” value ([7]; 100 ppb added) was 1.4. The “Off-Flavor Intensity” value ([7]; 100 ppb added) was 2.3, the “Masking Component Intensity” value ([7]; 100 ppt added) was 0.4 and the “Off-Flavor Intensity” value ([7]; 100 ppt added) was 3.4. The “Masking Component Intensity” value ([8]; 1 ppb added) was 0.6, the “Off-Flavor Intensity” value ([8]; 1 ppb added) was 3.4 and the “Masking Component Intensity” value ([8]; 1 ppm added) was 1.8. For the same compound, the “Off-Flavor Intensity” value ([8]; 1 ppm added) was 2.4, the “Masking Component Intensity” value ([8]; 10 ppb added) was 1.0 and the “Off-Flavor Intensity” value ([8]; 10 ppb added) was 2.9. The “Masking Component Intensity” value ([8]; 10 ppm added) was 2.6, the “Off-Flavor Intensity” value ([8]; 10 ppm added) was 2.0 and the “Masking Component Intensity” value ([8]; 10 ppt added) was 0.3. The “Off-Flavor Intensity” value ([8]; 10 ppt added) was 3.6, the “Masking Component Intensity” value ([8]; 50 ppm added) was 3.5 and the “Off-Flavor Intensity” value ([8]; 50 ppm added) was 1.8. For the same compound, the “Masking Component Intensity” value ([8]; 100 ppb added) was 1.5, the “Off-Flavor Intensity” value ([8]; 100 ppb added) was 2.9 and the “Masking Component Intensity” value ([8]; 100 ppt added) was 0.3. The “Off-Flavor Intensity” value ([8]; 100 ppt added) was 3.6, the “Masking Component Intensity” value ([9]; 1 ppb added) was 0.6 and the “Off-Flavor Intensity” value ([9]; 1 ppb added) was 3.1. The “Masking Component Intensity” value ([9]; 1 ppm added) was 1.9, the “Off-Flavor Intensity” value ([9]; 1 ppm added) was 2.5 and the “Masking Component Intensity” value ([9]; 10 ppb added) was 0.9. The “Off-Flavor Intensity” value ([9]; 10 ppb added) was 3.0, the “Masking Component Intensity” value ([9]; 10 ppm added) was 2.5 and the “Off-Flavor Intensity” value ([9]; 10 ppm added) was 1.9. For the same compound, the “Masking Component Intensity” value ([9]; 10 ppt added) was 0.1, the “Off-Flavor Intensity” value ([9]; 10 ppt added) was 3.6 and the “Masking Component Intensity” value ([9]; 50 ppm added) was 3.5. For the same compound, the “Off-Flavor Intensity” value ([9]; 50 ppm added) was 1.4, the “Masking Component Intensity” value ([9]; 100 ppb added) was 1.5 and the “Off-Flavor Intensity” value ([9]; 100 ppb added) was 2.9. The “Masking Component Intensity” value ([9]; 100 ppt added) was 0.3, the “Off-Flavor Intensity” value ([9]; 100 ppt added) was 3.4 and the “Masking Component Intensity” value ([10]; 1 ppm added) was 0.5. The “Off-Flavor Intensity” value ([10]; 1 ppm added) was 2.5, the “Masking Component Intensity” value ([10]; 10 ppm added) was 1.3 and the “Off-Flavor Intensity” value ([10]; 10 ppm added) was 1.9. For the same compound, the “Masking Component Intensity” value ([10]; 50 ppm added) was 1.9, the “Off-Flavor Intensity” value ([10]; 50 ppm added) was 1.4 and the “Masking Component Intensity” value ([10]; 100 ppb added) was 0.4. The “Off-Flavor Intensity” value ([10]; 100 ppb added) was 2.9, the “Masking Component Intensity” value ([10]; 100 ppm added) was 2.9 and the “Off-Flavor Intensity” value ([10]; 100 ppm added) was 0.8.
